Source: patent publication US20250255867A1 (Kadmon Corporation, LLC, priority 2022, published 2025)

Conditions: Cohort 3 400 mg QD
Protocol: All responses were assessed by the investigators.
Reported Adverse Events. […] All-cause mortality data collected during the study were assessed for all enrolled participants. Disease progression related death was not reported as AE.
Number of Participants With Treatment-emergent Adverse Events (TEAEs), and Treatment-emergent Serious Adverse Events (TESAEs). […] TEAEs included both SAEs and non-SAEs. […] Analysis was performed on safety population which included all participants who received at least 1 dose of study medication.

CC(C)NC(=O)COc1cccc(-c2nc(Nc3ccc4[nH]ncc4c3)c3ccccc3n2)c1 [Belumosudil, 2-{3-[4-(1H-indazol-5-ylamino)-2-quinazolinyl]phenoxy}-N-(propan-2-yl) acetamide]
(4.76%): Sinusitis: Affected/At Risk (%) | Stomatitis: Affected/At Risk (%) | Thrombocytopenia: Affected/At Risk (%)
3/21: SAE Dyspnoea, affected/at risk | SAE Pneumonia, affected/at risk
3: Respiratory syncytial virus infection: # Events | SAE Dyspnoea, # events | SAE Pneumonia, # events
13/21: SAE total, affected/at risk
(0%): Renal failure: Affected/At Risk (%) | Respiratory tract infection fungal: Affected/At Risk (%) | Respiratory tract infection: Affected/At Risk (%) | Restless legs syndrome: Affected/At Risk (%) | Rosacea: Affected/At Risk (%) | Sinus pain: Affected/At Risk (%) | Skin lesion: Affected/At Risk (%) | Skin papilloma: Affected/At Risk (%) | Spinal compression fracture: Affected/At Risk (%) | Squamous cell carcinoma of skin: Affected/At Risk (%) | Superior vena cava syndrome: Affected/At Risk (%) | Tendonitis: Affected/At Risk (%) | Testicular pain: Affected/At Risk (%) | Testicular swelling: Affected/At Risk (%) | Thoracic spinal stenosis: Affected/At Risk (%)
1/21: SAE Abdominal wall haematoma, affected/at risk | SAE Acute lymphocytic leukaemia recurrent, affected/at risk | SAE Cardiac arrest, affected/at risk | SAE Febrile neutropenia, affected/at risk | SAE Graft versus host disease in lung, affected/at risk | SAE Leukaemia recurrent, affected/at risk | SAE Myelodysplastic syndrome, affected/at risk | SAE Pericardial effusion, affected/at risk | SAE Pleural effusion, affected/at risk | SAE Pneumonia viral, affected/at risk | SAE Pregnancy of partner, affected/at risk | SAE Small intestinal obstruction, affected/at risk | SAE Urinary retention, affected/at risk | SAE Varicella zoster virus infection, affected/at risk | Sinusitis: Affected/At Risk | Stomatitis: Affected/At Risk | Thrombocytopenia: Affected/At Risk
0/21: Renal failure: Affected/At Risk | Respiratory tract infection fungal: Affected/At Risk | Respiratory tract infection: Affected/At Risk | Restless legs syndrome: Affected/At Risk | Rosacea: Affected/At Risk | SAE Acute kidney injury, affected/at risk | SAE Acute respiratory failure, affected/at risk | SAE Anaphylactic reaction, affected/at risk | SAE Bacteraemia, affected/at risk | SAE Cellulitis, affected/at risk | SAE Chronic graft versus host disease in skin, affected/at risk | SAE Citrobacter infection, affected/at risk | SAE Embolism, affected/at risk | SAE Influenza A virus test positive, affected/at risk | SAE Lacunar infarction, affected/at risk | SAE Lipomatosis, affected/at risk | SAE Metastases to meninges, affected/at risk | SAE Muscular weakness, affected/at risk | SAE Non-cardiac chest pain, affected/at risk | SAE Obliterative bronchiolitis, affected/at risk | SAE Proteinuria, affected/at risk | SAE Respirovirus test positive, affected/at risk | SAE Stenotrophomonas infection, affected/at risk | SAE Urinary tract infection, affected/at risk | Sinus pain: Affected/At Risk | Skin lesion: Affected/At Risk | Skin papilloma: Affected/At Risk | Spinal compression fracture: Affected/At Risk | Squamous cell carcinoma of skin: Affected/At Risk | Superior vena cava syndrome: Affected/At Risk | Tendonitis: Affected/At Risk | Testicular pain: Affected/At Risk | Testicular swelling: Affected/At Risk | Thoracic spinal stenosis: Affected/At Risk
(9.52%): Respiratory syncytial virus infection: Affected/At Risk (%) | Skin abrasion: Affected/At Risk (%) | Tachycardia: Affected/At Risk (%)
2/21: Respiratory syncytial virus infection: Affected/At Risk | SAE Hypoxia, affected/at risk | SAE Influenza like illness, affected/at risk | Skin abrasion: Affected/At Risk | Tachycardia: Affected/At Risk
2: SAE Hypoxia, # events | SAE Influenza like illness, # events | Skin abrasion: # Events | Tachycardia: # Events
0: Respiratory tract infection fungal: # Events | Respiratory tract infection: # Events | Restless legs syndrome: # Events | Rosacea: # Events | SAE Acute kidney injury, # events | SAE Acute respiratory failure, # events | SAE Anaphylactic reaction, # events | SAE Bacteraemia, # events | SAE Cellulitis, # events | SAE Chronic graft versus host disease in skin, # events | SAE Citrobacter infection, # events | SAE Embolism, # events | SAE Influenza A virus test positive, # events | SAE Lacunar infarction, # events | SAE Lipomatosis, # events | SAE Metastases to meninges, # events | SAE Muscular weakness, # events | SAE Non-cardiac chest pain, # events | SAE Obliterative bronchiolitis, # events | SAE Proteinuria, # events | SAE Respirovirus test positive, # events | SAE Stenotrophomonas infection, # events | SAE Urinary tract infection, # events | Sinus pain: # Events | Skin lesion: # Events | Skin papilloma: # Events | Spinal compression fracture: # Events | Squamous cell carcinoma of skin: # Events | Superior vena cava syndrome: # Events | Tendonitis: # Events | Testicular pain: # Events | Testicular swelling: # Events | Thoracic spinal stenosis: # Events
1: SAE Abdominal wall haematoma, # events | SAE Acute lymphocytic leukaemia recurrent, # events | SAE Cardiac arrest, # events | SAE Febrile neutropenia, # events | SAE Graft versus host disease in lung, # events | SAE Leukaemia recurrent, # events | SAE Myelodysplastic syndrome, # events | SAE Pericardial effusion, # events | SAE Pleural effusion, # events | SAE Pneumonia viral, # events | SAE Pregnancy of partner, # events | SAE Small intestinal obstruction, # events | SAE Urinary retention, # events | SAE Varicella zoster virus infection, # events | Sinusitis: # Events | Stomatitis: # Events | Thrombocytopenia: # Events
